Measured values published in patent publication US20210059977A1, “COMBINATION THERAPIES FOR THE TREATMENT OF AMYOTROPHIC LATERAL SCLEROSIS AND RELATED DISORDERS” (The General Hospital Corporation, priority 2018, published 2021).

What was measured:
GPR35 [1] = assay: GPR35 immunofluorescence, lumbar spinal cord; format: in vivo, mice; details: TgSOD1-Cromolyn vs TgSOD1-Vehicle
Procedure: Frozen mouse lumbar spinal cord was sectioned at […] and stained using previously described methods. Tissue sections were fixed with 4% paraformaldehyde and blocked in a mixture of phosphate-buffered saline (PBS), 5% BSA, and normal goat serum. Co-staining was done using antibodies specific for GPR35 (Novus Biologicals, Littleton, Colo.; NBP2-24640) and NeuN (Millipore Sigma, Temecula, Calif.; MAB377 overnight at 4° C. Following three washes with PBS, sections were incubated with Cy3-conjugated goat anti-mouse and FITC-conjugated goat anti-rabbit antibodies (Jackson ImmunoResearch, West Grove, Pa.). Ten 20× fields were imaged from each section and analyzed using open source software from the National Institutes of Health (ImageJ).
(§1) 149 male and female age- and litter-matched transgenic (Tg) SOD1^G93A and wild-type (Wt) SOD1^G93A mice were used with the following breakdown: Females (19 WtSOD1-Vehicle, 17 WtSOD1-Cromolyn, 19 TgSOD1-Vehicle, and 17 TgSOD1-Cromolyn) and Males (18 WtSOD1-Vehicle, 21 WtSOD1-Cromolyn, 21 TgSOD1-Vehicle, 17 TgSOD1-Cromolyn).

[2] = system: lumbar spinal cord motor neurons; assay: Motor neuron quantification (H&E); format: in vivo, mice; details: TgSOD1-Cromolyn vs TgSOD1-Vehicle; p=0.0033
Procedure: Longitudinal sections (10 μm) of the lumbar spinal cord were cut from fresh frozen tissue. Hematoxylin and eosin (H&E) staining was performed on the tissue sections as previously described. Within the region containing the ventral horn, all motor neurons are counted for three individual sections per animal (each separated by […]) to cover the areas of highest motor neuron density within the ventral horn. All counting was performed by an individual blinded to the genotypes. Images were acquired using a Zeiss microscope 20× objective (0.8 NA) and processed with Metamorph image analysis software (Molecular Devices).
as §1

GPR35 [3] = assay: GPR35 western blots, spinal cord; format: in vivo, mice; details: non-lumbar region of the spinal cord; TgSOD1-Cromolyn vs TgSOD1-Vehicle; p=0.167
Procedure: Western blots were performed as previously described (Mueller et al., 2018). Briefly, […] of mouse spinal cord protein was re-suspended in sample buffer, boiled at 95° C. for 5 minutes, and fractioned on 10-20% Tricine gels (Life Technologies), and the membrane was then blocked with 5% milk in tris-buffered saline with Tween 20 (TBST) before immunodetection with antibodies specific for the following: GPR35 (Novus Biologicals, Littleton, Colo.; NBP2-24640), and beta-actin (Cell Signaling Technology, Danvers, Mass.; 4967S). Primary antibody incubation overnight was followed by 4 washes (15 min, RT) in TBST before incubation with the secondary antibody for 1 h (HRP-conjugated goat anti-rabbit IgG Jackson ImmunoResearch Laboratories, West Grove, Pa.; and HRP-conjugated goat anti-mouse Bio-Rad Laboratories Hercules, Calif.). After 4 washes in TBST (15 min, RT) proteins were visualized using the ECL detection system (NEN, Boston, Mass.). GPR35 integrated density values (IDV) were normalized to beta-actin.
as §1

[4] = Body weight of TgSOD1 mice; format: in vivo; details: TgSOD1-Cromolyn vs TgSOD1-Vehicle
Procedure: Beginning at P50, weight and neurological score (using the ALS TDI criteria) (Hatzipetros, T., et al. (2015). “A Quick Phenotypic Neurological Scoring System for Evaluating Disease Progression in the SOD1-G93A Mouse Model of ALS.” J Vis Exp(104); Leitner M., et. al. (2009). “Working with ALS mice: Guidelines for preclinical testing & colony management.” The Jackson Laboratory) were recorded for each mouse every 5 days until death or euthanasia. ALS TDI criteria are as follows: • Score of 0: Full extension of hind legs away from lateral midline when mouse is suspended by its tail, and mouse can hold this for two seconds, suspended two to three times. • Score of 1: Collapse or partial collapse of leg extension towards lateral midline (weakness) or trembling of hind legs during tail suspension. • Score of 2: Toes curl under at least twice during walking of 12 inches, or any part of foot is dragging along cage bottom/table. • Score of 3: Rigid paralysis or minimal joint movement, foot not being used for generating forward motion. • Score of 4: Mouse cannot right itself within 15 seconds after being placed on either side. *Mice were euthanized upon obtaining a score of 4. […]

SOD1 gene = details: in vitro studies; cited from earlier work

O=C(O)c1cc(=O)c2c(OCC(O)COc3cccc4oc(C(=O)O)cc(=O)c34)cccc2o1 [cromolyn, cromolyn sodium]
neuronal GPR35 levels (co-localized with NeuN) (GPR35 [1]; p=0.0411): significant increase in neuronal GPR35 levels
GPR35 levels (immunofluorescence intensity) (GPR35 [1]; p=0.0449): significant increase in GPR35 levels
motor neuron survival (lumbar spinal cord motor neuron counts) [2]: significantly increased
GPR35 levels (western blot, normalized to beta-actin) (GPR35 [3]): trend towards an increase
body weight ([4]; 6.3 mg/kg i.p. once daily 5 days per week from P60, overall): did not impact body weight
body weight ([4]; 6.3 mg/kg i.p., all mice, at P130): significant improvement in body weight
effect on SOD1 gene (SOD1 gene): inhibits the SOD1 gene
